Consider 46 molecules from patent US20110288116A1, “IAP INHIBITORS” (TETRALOGIC PHARMACEUITCAL CORPORATION, priority 2008, published 2011).

For the assay, the target named is T1, cIAP-1 BIR-3 (Homo sapiens, UniProt Q13490).
T1 construct: "cIAP-1 BIR-3"
Briefly: Fluorescence polarization binding to cIAP-1 BIR-3 (competition with AbuRPF-K(5-Fam)-NH2). The settings on record: cells marked (cIAP-1): cIAP-1 BIR-3; reported as range class. The method, then: The binding affinities of the compounds are reported as a Kd value. Briefly, various concentrations of test peptides were mixed with 5 nM of the fluorescently labeled peptide (i.e., a mutated N-terminal Smac peptide—AbuRPF-K(5-Fam)-NH2) and 40 nM of the BIR3 for 15 min at RT in […] of 0.1M Potassium Phosphate buffer, pH 7.5 containing […] bovine g-globulin. Following incubation, the polarization values (mP) were measured on a Victor2V (available from PerkinElmer Life Sciences) using a 485 nm excitation filter and a 520 nm emission filter. The reported Kd values are supplied as ranges (A=<0.1 μM, B=0.1 μM to C=>1 μM to 10 μM, D=>10 μM) and, unless otherwise indicated, are the Kd for XIAP BIR-3.
A general note: Fluorescence polarisation rises when a labelled molecule tumbles more slowly, as on binding a larger partner.

T1 sequence (Q13490 266-343 limits assumed): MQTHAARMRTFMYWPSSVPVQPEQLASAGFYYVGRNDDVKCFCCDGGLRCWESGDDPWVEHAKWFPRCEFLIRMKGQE

Broadly, the Kd is a measure of binding affinity in units of concentration. A higher Kd goes with weaker binding. As to `CC[C@H](NC)C(=O)N[C@H](C(=O)N1CC[C@@H](O)[C@H]1Cc1c[nH]c2ccccc12)C(C)C` [UU′], the Kd was < 100 nM. On to `CN[C@H](C(=O)N[C@H](C(=O)N1CC[C@@H](O)[C@H]1Cc1c[nH]c2ccccc12)C(C)C)C1CC1` [TT′], for which the Kd is > 100 nM. As for `CC[C@H](NC)C(=O)N[C@H](C(=O)N1CC[C@@H](O)[C@H]1Cc1c[nH]c2ccccc12)C(C)(C)C` [NN′], the equilibrium dissociation constant (Kd) is < 100 nM. Next, `CN[C@@H](C)C(=O)N[C@H](C(=O)N1CC[C@H](O)[C@H]1Cc1c(Cl)[nH]c2cc(F)ccc12)C1CCCCC1` [W′]: < 100 nM. With `CCN[C@@H](C)C(=O)N[C@H](C(=O)N1CC[C@@H](O)[C@H]1Cc1c(-c2ccc(F)cc2)[nH]c2ccccc12)C1CCCCC1` [III], the Kd is < 100 nM.

Regarding `CCN[C@@H](C)C(=O)N[C@H](C(=O)N1CC[C@@H](O)[C@H]1Cc1c[nH]c2ccccc12)[C@@H](C)OC` [GG′], the Kd is < 100 nM. As to `CN[C@H](C(=O)N[C@H](C(=O)N1CC[C@@H](O)[C@H]1Cc1c[nH]c2ccccc12)C(C)(C)C)C1CC1` [MM′], the dissociation constant Kd was < 100 nM. Next, `CCN[C@@H](C)C(=O)N[C@H](C(=O)N1CC[C@@H](O)[C@H]1Cc1c[nH]c2ccccc12)C(C)(C)C` [OO′]: < 100 nM; `CCN[C@@H](C)C(=O)N[C@H](C(=O)N1CC[C@@H](O)[C@H]1Cc1c[nH]c2ccccc12)C1CCCCC1` [JJ′]: < 100 nM; `CN[C@@H](C)C(=O)N[C@H](C(=O)N1CC[C@@H](O)[C@H]1Cc1c(-c2ccc(F)cc2)[nH]c2ccccc12)[C@@H](C)O` [EEE]: < 100 nM. Next, `CCc1ccc2c(c1)[C@H](C[C@@H]1C[C@H](O)CN1C(=O)[C@@H](NC(=O)[C@H](C)NC)[C@@H](C)OC)CN2C(C)=O` [ZZZ]: < 100 nM.

Take `CN[C@@H](C)C(=O)N[C@H](C(=O)N1C[C@@H](O)C[C@H]1C(=O)c1c[nH]c2cc(F)ccc12)C(C)(C)C` [PPP, N-{1-[2-(6-Fluoro-1H-indole-3-carbonyl)-4-hydroxy-pyrrolidine-1-carbonyl]-2,2-dimethyl-propyl}-2-methylamino-propionamide]: the Kd is < 100 nM. The value for `CN[C@@H](C)C(=O)N[C@H](C(=O)N1C[C@@H](O)C[C@H]1C(=O)c1c[nH]c2cc(F)ccc12)C(C)C` [QQQ] was < 100 nM; that for `CN[C@@H](C)C(=O)N[C@H](C(=O)N1CC[C@H](O)[C@H]1Cc1c[nH]c2ncccc12)[C@@H](C)OC` [BB] was < 100 nM; that for `CC[C@H](NC)C(=O)N[C@H](C(=O)N1CC[C@H](OC)[C@H]1Cc1c(Cl)[nH]c2cc(F)ccc12)C(C)C` [V′] was > 100 nM. The value for `CN[C@@H](C)C(=O)N[C@H](C(=O)N1C[C@@H](O)C[C@H]1C[C@@H]1CN(C(C)=O)c2ccccc21)C1CCCCC1` [TTT] was < 100 nM; that for `CN[C@@H](C)C(=O)N[C@H](C(=O)N1CCC[C@H]1Cc1cn(C)c2ncccc12)C(C)(C)C` [X] was < 100 nM.

`CN[C@@H](C)C(=O)N[C@H](C(=O)N1CC[C@H](O)[C@H]1Cc1c[nH]c2ncccc12)C(C)C` [DD]: the Kd is < 100 nM. Consider `CN[C@@H](C)C(=O)N[C@H](C(=O)N1C[C@@H](O)C[C@H]1C[C@H]1CN(C(C)=O)c2ccccc21)[C@@H](C)OC` [WWW], for which the Kd was > 100 nM. Next, AAAA: > 100 nM. Next, `CN[C@@H](C)C(=O)N[C@H](C(=O)N1CC[C@@H](O)[C@H]1Cc1c[nH]c2ccccc12)C(C)(C)C` [PP′]: < 100 nM; `CN[C@@H](C)C(=O)N[C@H](C(=O)N1CC[C@@H](O)[C@H]1Cc1c[nH]c2ccccc12)C(C)C` [XX′]: < 100 nM; `CCN[C@@H](C)C(=O)N[C@H](C(=O)N1CC[C@@H](O)[C@H]1Cc1c(-c2ccc(F)cc2)[nH]c2ccccc12)[C@@H](C)O` [CCC]: < 100 nM. Turning to `CCN[C@@H](C)C(=O)N[C@@H](COC)C(=O)N1CC[C@@H](O)[C@H]1Cc1c(-c2ccc(F)cc2)[nH]c2ccccc12` [FFF], the Kd was > 100 nM. Regarding `CCc1ccc2c(c1)[C@@H](C[C@@H]1C[C@H](O)CN1C(=O)[C@@H](NC(=O)[C@H](C)NC)C1CCCCC1)CN2C(C)=O` [BBBB], the Kd is > 100 nM. Next, `CCN[C@@H](C)C(=O)N[C@H](C(=O)N1CC[C@@H](O)[C@H]1Cc1c(-c2ccc(F)cc2)[nH]c2ccccc12)[C@@H](C)OC` [LLL]: < 100 nM; `CN[C@H](C(=O)N[C@H](C(=O)N1CC[C@@H](O)[C@H]1Cc1c[nH]c2ccccc12)C1CC1)C1CC1` [QQ′]: > 100 nM; `CN[C@@H](C)C(=O)N[C@H](C(=O)N1CC[C@H](O)[C@H]1Cc1c(Cl)[nH]c2cc(F)ccc12)[C@@H](C)OC` [CC′, N-{1-[2-(2-Chloro-6-fluoro-1H-indol-3-ylmethyl)-3-hydroxy-pyrrolidine-1-carbonyl]-2-methoxy-propyl}-2-methylamino-propionamide]: < 100 nM. Take `CN[C@@H](C)C(=O)N[C@@H](COC)C(=O)N1CC[C@@H](O)[C@H]1Cc1c(-c2ccc(F)cc2)[nH]c2ccccc12` [HHH]: the Kd is > 100 nM. Next, `CCN[C@@H](C)C(=O)N[C@H](C(=O)N1CC[C@@H](O)[C@H]1Cc1c[nH]c2ccccc12)[C@@H](C)O` [DD′]: < 100 nM; `CCN[C@@H](C)C(=O)N[C@H](C(=O)N1CC[C@@H](O)[C@H]1Cc1c(-c2ccc(F)cc2)[nH]c2ccccc12)C(C)C` [ZZ′]: < 100 nM. The value for `CCc1ccc2c(c1)[C@@H](C[C@@H]1C[C@H](O)CN1C(=O)[C@@H](NC(=O)[C@H](C)NC)[C@@H](C)OC)CN2C(C)=O` [DDDD] was < 100 nM; that for `CN[C@@H](C)C(=O)N[C@H](C(=O)N1CC[C@H](O)[C@H]1Cc1c(Cl)[nH]c2cc(F)ccc12)C(C)(C)C` [Y′] was < 100 nM. The value for `CC[C@H](NC)C(=O)N[C@H](C(=O)N1CC[C@H](O)[C@H]1Cc1c(Cl)[nH]c2cc(F)ccc12)[C@@H](C)OC` [BB′] was < 100 nM. For `CCN[C@@H](C)C(=O)N[C@H](C(=O)N1CC[C@@H](O)[C@H]1Cc1c[nH]c2ccccc12)C1CC1` [SS′], the Kd was > 100 nM. With `CN[C@@H](C)C(=O)N[C@H](C(=O)N1CC[C@@H](O)[C@H]1Cc1c[nH]c2ccccc12)C1CC1` [VV′], the Kd is < 100 nM. The value for `CC[C@H](NC)C(=O)N[C@H](C(=O)N1CC[C@@H](O)[C@H]1Cc1c[nH]c2ccccc12)C1CC1` [RR′] was < 100 nM; that for `CCN[C@@H](C)C(=O)N[C@H](C(=O)N1C[C@@H](O)C[C@H]1C[C@H]1CN(C(C)=O)c2ccc(CC)cc21)C1CCCCC1` [CCCC] was > 100 nM. The value for `CN[C@@H](C)C(=O)N[C@H](C(=O)N1CC[C@H](O)[C@H]1Cc1c[nH]c2ncccc12)C(C)(C)C` [Z, N-{1-[3-Hydroxy-2-(1H-pyrrolo[2,3-b]pyridin-3-ylmethyl)-pyrrolidine-1-carbonyl]-2,2-dimethyl-propyl}-2-methylamino-propionamide] was < 100 nM.

Take `CCN[C@@H](C)C(=O)N[C@H](C(=O)N1CC[C@H](O)[C@H]1Cc1c[nH]c2ncccc12)[C@@H](C)OC` [CC]: the equilibrium dissociation constant (Kd) is < 100 nM.

With EEEE, the Kd is > 100 nM.

Regarding `CC[C@H](NC)C(=O)N[C@H](C(=O)N1CC[C@@H](O)[C@H]1Cc1c[nH]c2ccccc12)C1CCCCC1` [KK′], the Kd was < 100 nM. Next, `CC[C@H](NC)C(=O)N[C@H](C(=O)N1CCC[C@H]1Cc1cn(C)c2ncccc12)C(C)(C)C` [V]: > 100 nM; `CC[C@H](NC)C(=O)N[C@H](C(=O)N1CC[C@H](O)[C@H]1Cc1c(Cl)[nH]c2cc(F)ccc12)C(C)C` [Z′]: < 100 nM.

Take `CC[C@H](NC)C(=O)N[C@H](C(=O)N1CC[C@@H](O)[C@H]1Cc1c(-c2ccc(F)cc2)[nH]c2ccccc12)[C@@H](C)O` [DDD]: the Kd was < 100 nM.

For `CCN[C@@H](C)C(=O)N[C@H](C(=O)N1CC[C@H](OC)[C@H]1Cc1c(Cl)[nH]c2cc(F)ccc12)C(C)C` [U′], the Kd was > 100 nM.
